Source: patent US7855177B1, “Methods and kits for preventing hypoglycemia” (Cebix Inc., priority 2009, dated 2010)

Key:
[1] = S.C.; cited from earlier work
[2] = test system: type 1 diabetes patients with peripheral neuropathy; assay: Phase II trial: adverse events
Method: The safety measurements comprised collection of AEs, spontaneously reported by the patient or recorded by the investigator at each clinical visit. Review of laboratory investigations, vital signs, and physical examinations was performed at the S/B visit, visit 2, and at end of study (visit 4). ECG was performed at the S/B visit and at visit 4.
An AE was classified as “unexpected event” (i.e., if not specifically listed in the Investigator's Brochure) in terms of nature, severity, or frequency. All AEs, including intercurrent illnesses and increased severity or frequency of sign/symptoms of a concomitant disease was reported and documented as described below. AEs were documented on an “Adverse Event/Serious Adverse Event” page of the CRF and in the patient's medical records. Any AE occurring at any time after the end of the study, considered to be caused by the study medication—and therefore a possible adverse drug reaction—was reported to the sponsor.
The period of observation for AEs extended from the time the patient started on trial medication until end of the study. AEs were divided into the categories “serious” and “non-serious”. This determined the procedure used to report/document the AE.
Regardless of the classification of an AE as serious or non-serious (see above), its severity was assessed as mild, moderate, or severe, according to medical criteria alone:
Descriptive statistics were used for safety variables. For lab parameters summary statistics were presented as change from baseline and between doses. The changes from baseline were calculated and compared with normal ranges. The safety analysis set included all patients who obtained at least one dose of the investigational drug. AEs were coded according to the MedDRA dictionary. The frequencies of AEs are tabulated by body system and included/preferred term.

[3] = High-dose C-peptide, SOC Blood and lymphatic system disorder
[4] = High-dose C-peptide, SOC Eye disorder
[5] = High-dose C-peptide, SOC Gastro-intestinal Disorders
[6] = High-dose C-peptide, SOC General disorders and administration site conditions
[7] = High-dose C-peptide, SOC Infections and infestations
[8] = High-dose C-peptide, SOC Injury poisoning, procedural complications
[9] = High-dose C-peptide, SOC Investigations
[10] = High-dose C-peptide, SOC Metabolism and nutritional disorders
[11] = High-dose C-peptide, SOC Musculoskeletal and connective tissue disorder
[12] = High-dose C-peptide, SOC Nervous system disorders
[13] = High-dose C-peptide, SOC Reproductive system and breast disorders
[14] = High-dose C-peptide, SOC Respiratory, thoracic, and mediastinal disorders
[15] = High-dose C-peptide, SOC Skin and subcutaneous tissue disorders
[16] = High-dose C-peptide, SOC Surgical and Medical
[17] = High-dose C-peptide, SOC Vascular disorders
[18] = Low-dose C-peptide, SOC Cardiac disorder

CC(C)C[C@H](NC(=O)[C@H](C)NC(=O)[C@H](CC(C)C)NC(=O)[C@@H]1CCCN1C(=O)[C@H](CCC(N)=O)NC(=O)[C@H](CC(C)C)NC(=O)[C@H](CO)NC(=O)CNC(=O)[C@H](C)NC(=O)CNC(=O)[C@@H]1CCCN1C(=O)CNC(=O)CNC(=O)CNC(=O)[C@H](CC(C)C)NC(=O)[C@H](CCC(=O)O)NC(=O)[C@@H](NC(=O)[C@H](CCC(N)=O)NC(=O)CNC(=O)[C@@H](NC(=O)[C@H](CCC(N)=O)NC(=O)[C@H](CC(C)C)NC(=O)[C@H](CC(=O)O)NC(=O)[C@H](CCC(=O)O)NC(=O)[C@H](C)NC(=O)[C@@H](N)CCC(=O)O)C(C)C)C(C)C)C(=O)N[C@@H](CCC(=O)O)C(=O)NCC(=O)N[C@@H](CO)C(=O)N[C@@H](CC(C)C)C(=O)N[C@@H](CCC(N)=O)C(=O)O [C-peptide]
bioavailability of subcutaneously administered C-peptide [1]: approximately 80% | tolerability ([2]; 500-1,500 nmoL/24 h): well tolerated | Anemia, number of AEs [2, 3]: 1 | Hemorrhage, number of AEs [2, 3]: 1 | Macular edema, number of AEs [2, 4]: 1 | Vitreous hemorrhage, number of AEs [2, 4]: 1 | Abdominal pain, number of AEs [2, 5]: 3 | Aptyalism, number of AEs [2, 5]: 1 | Diarrhea, number of AEs [2, 5]: 1 | Gastritis, number of AEs [2, 5]: 1 | Nausea, number of AEs [2, 5]: 4 | Tooth ache, number of AEs [2, 5]: 3 | Chest pain, number of AEs [2, 6]: 2 | Fatigue, number of AEs [2, 6]: 2 | Feeling abnormal, number of AEs [2, 6]: 3 | Injection site burning, number of AEs [2, 6]: 1 (1) | Injection site burning, number of AEs possibly related to study drug [2, 6]: 1 (1) | Gastroenteritis, number of AEs [2, 7]: 7 | Otitis, number of AEs [2, 7]: 2 | Pharyngitis, number of AEs [2, 7]: 2 | Sepsis, number of AEs [2, 7]: 1 | Sinusitis, number of AEs [2, 7]: 2 | Skin infection, number of AEs [2, 7]: 1 | Tonsilitis, number of AEs [2, 7]: 2 | Tooth infection, number of AEs [2, 7]: 2 | Upper respiratory tract infection, number of AEs [2, 7]: 1 | Urinary tract infection, number of AEs [2, 7]: 1 | Blister, number of AEs [2, 8]: 2 | Dizziness, number of AEs [2, 8]: 1 | Eye injury, number of AEs [2, 8]: 1 | Food poisoning, number of AEs [2, 8]: 1 | Joint sprain ankle, number of AEs [2, 8]: 1 | Knee injury, number of AEs [2, 8]: 1 | Rib fracture/injury, number of AEs [2, 8]: 2 | Scar, number of AEs [2, 8]: 1 | Tooth injury, number of AEs [2, 8]: 1 | Cardiac murmur, number of AEs [2, 9]: 1 | Hematuria, number of AEs [2, 9]: 1 | Hepatic enzyme increase, number of AEs [2, 9]: 2 | Hypercalcemia, number of AEs [2, 9]: 1 | Leucopenia, number of AEs [2, 9]: 1 | Lymph node enlargement, number of AEs [2, 9]: 1 | Hyperglycemia, number of AEs [2, 10]: 1 | Hypoglycemia, number of AEs [2, 10]: 5 | Hypoglycemia, number of AEs possibly related to study drug [2, 10]: 1 | Hypoglycemic coma, number of AEs [2, 10]: 2 | Vitamin B12 deficiency, number of AEs [2, 10]: 1 | Arthralgia, number of AEs [2, 11]: 3 | Arthritis, number of AEs [2, 11]: 1 | Arthropathy, number of AEs [2, 11]: 1 | Back pain, number of AEs [2, 11]: 2 | Epicondylitis, number of AEs [2, 11]: 1 | Muscle spasm, number of AEs [2, 11]: 1 | Muscular atrophy, number of AEs [2, 11]: 1 | Myalgia, number of AEs [2, 11]: 1 | Pain in extremity, number of AEs [2, 11]: 4 | Pain in shoulder, number of AEs [2, 11]: 1 | Tendinitis, number of AEs [2, 11]: 1 | Tendosynovitis, number of AEs [2, 11]: 1 | Torticollis, number of AEs [2, 11]: 1 | Burning sensation, number of AEs [2, 12]: 1 | Headache, number of AEs [2, 12]: 17 | Hyperaesthesia, number of AEs [2, 12]: 1 (1) | Hyperaesthesia, number of AEs possibly related to study drug [2, 12]: 1 (1) | Migraine, number of AEs [2, 12]: 1 | Paraesthesia, number of AEs [2, 12]: 2 (2) | Paraesthesia, number of AEs possibly related to study drug [2, 12]: 2 (2) | Restless legs syndrome, number of AEs [2, 12]: 1 | Sciatica, number of AEs [2, 12]: 1 | Sensory loss, number of AEs [2, 12]: 1 | Vertigo, number of AEs [2, 12]: 1 | Pregnancy, number of AEs ([2]; High-dose C-peptide, SOC Pregnancy, puerperium and perinatal conditions): 2 | Menopausal disorder, number of AEs [2, 13]: 1 | Menstration irregular, number of AEs [2, 13]: 1 | Cough, number of AEs [2, 14]: 1 | Epistaxis, number of AEs [2, 14]: 1 | Skin induration, number of AEs [2, 15]: 1 | Skin infection, number of AEs [2, 15]: 2 | Sweating increased, number of AEs [2, 15]: 1 | Limb operation, number of AEs [2, 16]: 1 | Tooth extraction, number of AEs [2, 16]: 1 | Arterial disorder, number of AEs [2, 17]: 1 | Hypertension, number of AEs [2, 17]: 1 | Hypotension, number of AEs [2, 17]: 1 | Total treatment emergent AEs of any severity, number ([2]; High-dose C-peptide, all SOCs): 156 | Total treatment emergent AEs possibly related to study drug, number ([2]; High-dose C-peptide, all SOCs): 5 | Anemia, number of AEs ([2]; Low-dose C-peptide, SOC Blood and lymphatic system disorder): 1 | Cardiac arrhythmia, number of AEs [2, 18]: 1 | ST elevation (ECG), number of AEs [2, 18]: 1 | Tachycardia (stress, number of AEs) [2, 18]: 1
